In patent US9394291B2, “Benzoxazinone amides as mineralocorticoid receptor modulators” (AstraZeneca AB, priority 2014, dated 2016):
Where two headings read alike, the source gives them in different places.

Legend:
[1] = molecular target: T1, human MR LBD (Homo sapiens (Human), UniProt P08235); details: read-out: Test A2 IC50; displacement of 5 nM 3H-aldosterone, MBP-MR LBD/P23 lysate, Imaging beads
Procedure: In order to identify binding to the human MR LBD a scintillation proximity assay (SPA) was adapted to the 384-well format. The MR-LBD (amino acids T729-K985) was expressed as N-terminal fusion with maltose binding protein in Hi5 insect cells by co-infection with recombinant MBP-MR LBD and P23 baculoviruses and crude protein lysate was used in the assay.
Briefly, in Test A1 the assay was run in 384 well format in 10 mM Tris-HCl, pH 7.5, 0.5 mM EDTA 20 mM NaMoO4, 0.1 mM DTT and 10% glycerol at rt. Compounds were tested in a 7 (Test A1) or 10 (Test A2) concentration response curve ranging from 10 nM to 10 μM (Test A1) or 1 nM to 37 μM (Test A2). Compounds were spotted at the bottom of a well of a 384-well PE Opti-Plate to yield final DMSO concentrations in the assay of 2%. Pre-made MBP-MR/P23 lysate: ^3H-aldosterone mix (final assay concentration 7 μg/mL MBP-MR LBD/P23 lysate; 5 nM aldosterone) was added onto the top of the spotted compound and preincubated for 1 h at RT. […] The inhibition of the scintillation signal by displacement of the bound ^3H-aldosterone by test compounds is measured by scintillation counting using a Microbeta Trilux (Wallac) (Test A1) or a by CCD camera detection using a LEADseeker (PerkinElmer) (Test A2).

[2] = molecular target: T1, human MR LBD; assay: Mineralocorticoid Binding, Test A1 (SPA beads, 3H-aldosterone displacement); details: displacement of 5 nM 3H-aldosterone, MBP-MR LBD/P23 lysate
[3] = molecular target: T2, MR (UAS-MR-bla HEK293 cells) (Homo sapiens, UniProt P08235); assay: cell-based
T2 sequence (P08235 whole entry, looked up): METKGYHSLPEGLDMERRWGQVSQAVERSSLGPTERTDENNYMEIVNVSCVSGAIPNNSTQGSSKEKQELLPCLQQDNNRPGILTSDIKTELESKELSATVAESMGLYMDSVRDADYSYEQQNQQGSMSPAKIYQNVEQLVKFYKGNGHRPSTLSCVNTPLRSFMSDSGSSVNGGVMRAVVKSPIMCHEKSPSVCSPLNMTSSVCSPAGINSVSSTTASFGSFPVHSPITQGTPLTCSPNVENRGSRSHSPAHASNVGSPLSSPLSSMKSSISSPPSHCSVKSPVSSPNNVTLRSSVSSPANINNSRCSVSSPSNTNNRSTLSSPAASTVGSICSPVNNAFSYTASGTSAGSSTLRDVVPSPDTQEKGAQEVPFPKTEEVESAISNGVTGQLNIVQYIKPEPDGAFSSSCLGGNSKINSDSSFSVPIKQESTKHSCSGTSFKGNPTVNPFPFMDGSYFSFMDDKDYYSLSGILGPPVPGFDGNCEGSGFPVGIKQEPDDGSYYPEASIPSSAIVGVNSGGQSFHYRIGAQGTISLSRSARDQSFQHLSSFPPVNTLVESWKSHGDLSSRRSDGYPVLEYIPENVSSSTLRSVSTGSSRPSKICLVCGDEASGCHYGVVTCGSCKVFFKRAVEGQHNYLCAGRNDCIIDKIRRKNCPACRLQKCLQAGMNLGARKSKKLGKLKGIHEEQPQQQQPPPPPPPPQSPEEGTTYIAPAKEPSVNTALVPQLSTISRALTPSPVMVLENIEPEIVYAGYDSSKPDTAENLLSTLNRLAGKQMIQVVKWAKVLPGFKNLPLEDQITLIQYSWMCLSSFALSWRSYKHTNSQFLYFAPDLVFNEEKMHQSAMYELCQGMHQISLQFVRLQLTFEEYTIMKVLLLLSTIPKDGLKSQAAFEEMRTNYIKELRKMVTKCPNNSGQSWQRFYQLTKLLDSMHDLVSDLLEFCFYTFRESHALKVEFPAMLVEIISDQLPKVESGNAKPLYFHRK

[4] = molecular target: T2, MR (UAS-MR-bla HEK293 cells); assay: Mineralocorticoid Cellular Reporter Gene Assay, Test B1 (0.25 nM aldosterone)

T1 sequence (P08235 729-984 limits assumed): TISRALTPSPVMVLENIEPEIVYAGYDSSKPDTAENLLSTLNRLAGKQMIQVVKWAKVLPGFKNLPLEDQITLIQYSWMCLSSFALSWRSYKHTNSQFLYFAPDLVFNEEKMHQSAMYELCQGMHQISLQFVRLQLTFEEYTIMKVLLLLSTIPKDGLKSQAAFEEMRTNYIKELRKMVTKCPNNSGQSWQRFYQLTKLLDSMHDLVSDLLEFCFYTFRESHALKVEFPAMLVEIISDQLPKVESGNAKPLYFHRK

IC50 [1] [nM] | IC50 [3] [nM] | SMILES | IC50 [2] [nM] | IC50 [4] [nM] | inhibition at 100 µM ([4]; HEK293, read-out: Test B1, % at 100 μM) [%]
2900 | 620 | NC(=O)CC1COc2ccccc2N1C(=O)c1ccc2c(c1)NC(=O)CO2 (stereo not shown) [Example 1] | 1400 | 2100 | –
– | – | NC(=O)C[C@H]1COc2cc(Br)ccc2N1C(=O)c1ccc2c(c1)NC(=O)CO2 [Example 7, 2-{(3S)-7-Bromo-4-[(3-oxo-3,4-dihydro-2H-1,4-benzoxazin-6-yl)carbonyl]-3,4-dihydro-2H-1,4-benzoxazin-3-yl}acetamide] | 9.5 | 45 | –
– | – | CNC(=O)C[C@@H]1COc2cc(F)ccc2N1C(=O)c1ccc2c(c1)NC(=O)CO2 [Example 4b, 2-{(3R)-7-Fluoro-4-[(3-oxo-3,4-dihydro-2H-1,4-benzoxazin-6-yl)carbonyl]-3,4-dihydro-2H-1,4-benzoxazin-3-yl}-N-methylacetamide] | – | – | 35
